Measured values: a melting point compilation (Tetko et al.; mined from patent text by program, amines drawn as free bases though some values may be those of a salt)

melting point [°C]	SMILES
146 to 147	O=C(O)CCC(=O)Cc1ccc2c(c1)Cc1cccnc1O2
212 to 214	COc1cc(N)c(Cl)cc1C(=O)NC1CCN(CC2CCN(C(=O)Nc3ccccc3)CC2)CC1
239 to 241	Nc1nc2ccccc2c2c1nc(CO)n2CC1CCOCC1
98 to 99	CC(=O)Oc1c(C)c(C)c2c(c1C)CC(C)(CO)O2 (stereo unspecified)
182	Cc1csc(N2CCN(CC(O)c3ccc(O)c(C(N)=O)c3)CC2)n1 (stereo unspecified)
265 to 267	Cc1cc(N2CCN(Cc3ccc(F)cc3)C2=O)sc1C(=O)NCc1nc2ccccc2[nH]1
> 250	CN1C(=O)CCC(C)(C)c2ccc(NC(=O)c3ccc(C(=O)O)cc3)cc21
130	CCCC(=O)Nc1nn(COCC[Si](C)(C)C)c2cc(Cl)c(Br)cc12
184 to 185	O=C(NCc1ccc(Cl)cc1)c1cnc2ccc(CC3CCOCC3)cc2c1O
184 to 186	CCOC(=O)COc1cc(O)ccc1C(=O)c1ccc(OCc2nc(-c3ccccc3)oc2C)cc1
111	CCOC(=O)c1cnc2cc(F)c(F)cc2c1Cl
193 to 195	O=[N+]([O-])c1cccc(-c2nc3ccc(OC(F)(F)F)cc3[nH]2)c1
52 to 54	CCNC(=O)n1nc(Oc2ncc(C(F)(F)F)cc2Cl)cc1C(F)(F)F
233 to 236	O=C(O)c1c(F)cccc1NC1CCN(Cc2ccccc2)CC1
113 to 120	CNC(=O)c1ccc(N2CCN(Cc3cc(C)c4c(c3)NC(=O)C(C)O4)CC2)c(C)c1 (stereo unspecified)
103 to 104	COc1c(C)c(C)cc(C)c1C(O)(c1ccc(C)cc1)C(C)C (stereo unspecified)
138 to 141	Cn1c(Cl)nc2cc(F)ccc21
159 to 161	CC(=O)c1noc2cc(O)ccc12

melting point [°C]	SMILES
118 to 119	Cc1cc(NC(=O)CC(C)(C)C)c(C)c2c1OC(C)(C)C2c1ccc(C(C)C)cc1 (stereo unspecified)
249	O=C(Nc1ccc(CNc2nc(N3CCC3)nc3ccccc23)cc1)c1ccc(F)cc1
218 to 220	CCCCc1c(C(=O)O)cc(Cl)cc1[N+](=O)[O-]
148 to 149	O=C(O)CNC(=O)Cc1ccc(Cl)cc1S
243 to 245	CN(C)C=Nc1n[nH]c2ncnc(Nc3cccc(Cl)c3)c12
115 to 116	COc1ccc(CCl)cc1OCc1nc(-c2ccco2)oc1C
213 to 214	OC1(c2ccc(Cl)cc2)CCN(Cc2c[nH]c3ccccc23)CC1
195 to 197	CCOc1cc(Br)ccc1C=NNC(=N)NN=Cc1ccc(Br)cc1OCC
116 to 118	CCOC(=O)C=Cc1cc(OCc2ccccc2)ccc1-c1ccc(-c2cccc(C(F)(F)F)c2)c(C=O)c1
146 to 148	CCCCn1c(=O)c2cc(C(=O)OCC)cn2c2ccccc21
119 to 120	Cc1ccc(NC(=O)Cc2ccccc2)cc1
104 to 105	CC(=O)NC(C)COC1CCC(c2cc3ccc(OCC4CC4)cc3o2)CC1 (stereo unspecified)
39	CN(C)C(=O)N(COCCCl)c1ccc(C(F)(F)F)cc1
122 to 124	Cc1cc(=O)n(-c2cc(OC(C)C)c(C)cc2F)c(=O)o1
120 to 122	COC(=O)c1cc(OC)c(Br)c(OC)c1
126 to 128	CCC(C)N1CCC(CNc2ccc(Cl)cc2C(=O)Nc2ccc(C)cn2)CC1 (stereo unspecified)
134 to 135	CCNC(=O)c1c(C(F)(F)F)cccc1[Si](C)(C)C
138 to 139	CCOC(=O)c1cnc2n(c1=O)C(C)CCC2=NNc1ccccc1 (stereo unspecified)

Second part, the compound before the results:

SMILES	melting point [°C]
O=C(CC1c2ccccc2C(=O)N1c1ccc2ccc(Cl)nc2n1)N1CCC2(CC1)OCCO2 (stereo unspecified)	238 to 239
CSc1sc(C(=O)N2CCCCCC2)c2c1C(=O)CC(C)(C)C2	168 to 170
Cc1ccc(S(=O)(=O)NC(=O)CC2(c3ccc(OCc4ccc5ccccc5n4)cc3)CCCC2)cc1	80
NNC(=O)Nc1nccs1	166 to 167
C/C(=C\c1ccc(C2(C)OCCO2)cc1)c1ccc2c(c1)C(C)(C)CCC2(C)C	122 to 123
CC(=O)N1c2cc(Cl)ccc2OP1c1ccccc1 (stereo unspecified)	56 to 58
CN1C(=O)CN(C(N)=O)C(c2ccccc2)c2cc(Cl)ccc21 (stereo unspecified)	214 to 217
COCO[C@@H]1[C@H]2OC(C)(C)O[C@H]2[C@H](O[C@H]2C[C@H]3OC(C)(C)OC[C@]34C3C(CC[C@]4(O)C2)[C@@]2(O)CC[C@H](C#N)[C@@]2(C)C[C@H]3OCOC)O[C@H]1C (stereo partly specified)	97 to 99
O=S(=O)(/C=C/c1ccc(Br)cc1)CS(=O)(=O)/C=C/c1ccc(Br)cc1	213 to 215
CC(C)(C)NC(=O)c1cc(C(C)(C)C)c(O)c(C(C)(C)C)c1	207 to 208
CN1Cc2c(C(=O)OCCO)ncn2-c2ccccc2C1=O	222 to 223
CNC1NC(=O)c2sccc2-n2cccc21 (stereo unspecified)	146
CC(C)(C)NS(=O)(=O)c1cccc(F)n1	88 to 90
COP(=O)(Cc1c(Cl)c(Cl)c(CP(=O)(OC)OC)c(Cl)c1Cl)OC	179 to 181
COc1cc(CC(=O)N[C@@H](COC(=O)C(C)(C)C)Cc2ccccc2)ccc1OCCN=[N+]=[N-]	77 to 80
CC1(C)C=Cc2ccc(F)c(C#N)c2O1	99 to 101
CCCCCCCC(=O)c1cn(CCCC(=O)O)c2ccccc12	100 to 102
CN(NC(=O)OC(C)(C)C)C(=O)C(C)(C)ON=C(C(=O)O)c1csc(N)n1	145

SMILES	melting point [°C]
CC(=O)NS(=O)(=O)c1ccc(NC(=O)c2ccccc2SSc2ccccc2C(=O)Nc2ccc(S(=O)(=O)NC(C)=O)cc2)cc1	180 to 182
CCCCN(CCCC)C(=O)c1c(C)n(CCc2ccccc2)c2ccc(O)c(CN3CCCCC3)c12	105 to 107
CN(N=Cc1c[nH]c2ccccc12)c1cc(N2CCOCC2)nc(OCCc2ccccn2)n1	130 to 140
CCS(=O)c1nnc2n1C=Cc1ccccc1C2 (stereo unspecified)	98 to 99
COc1ccc(CS(=O)(=O)c2cc3ccccc3oc2=O)cc1	194 to 195
CC(C)C(c1ccc(O)cc1)N1CCOCC1 (stereo unspecified)	142 to 143
Clc1cc(Cl)cc(-c2cc3cc(Cl)cc(Cl)c3[nH]2)c1	189 to 190
Nc1nc(NCCN2CCC(Nc3nc4ccccc4n3Cc3ccc(F)cc3)CC2)ccc1[N+](=O)[O-]	206
Cn1cnc2nc(-c3cccc4ccccc34)nn2c1=S	278 to 279
COc1ccc(-c2c3c(cc4ccc(OCc5ccccc5)cc24)C(=O)NC3)cc1	213 to 216
C=CCOC(=O)[C@H](Cc1ccccc1)NC(=O)C(F)(F)F	44 to 45
CCCCCCCCCCCCCCCC1=CC=CC(=O)C12CO2 (stereo unspecified)	45 to 47
CC1(C)Oc2ccccc2C=C1/C=C/C=C/C=C/C(=O)O	180 to 182
O=[N+]([O-])c1ccc(NCCCn2ccnc2)cc1	130 to 132
Nc1cccc(C(=O)Nc2ccc(-c3ccc(C(=O)N4CCN5CCC4CC5)o3)cc2)c1	249 to 252
O=C(NCCCN1CCN(Cc2ccccc2)CC1)Nc1ccccc1	45 to 47
O=C(NCNC(=O)c1ccccc1C(=O)C1CCCCC1)OCc1ccccc1	152 to 155
